Patent publication US6403573B1, “Compounds of azetidine and pyrrolidin” (Akzo Nobel N.V., priority 2000, dated 2002)

How the values were obtained:
DRL-72 test = type: in vivo, rats
Description: This test, carried out according to the protocol of Andrews et al [“Effects of imipramine and mirtazapine on operant performance in rats”—Drug Development Research 32: 58-66 (1994)], gives an indication of potential antidepressant-like activity.

5HT2C receptors = target: T1, 5HT2C receptors (Rattus norvegicus, UniProt P08909); experiment: Penile erection test; type: in vivo, rats
T1 construct: from tissue; host or cells: living rats (in vivo)
T1 sequence (P08909 33-460): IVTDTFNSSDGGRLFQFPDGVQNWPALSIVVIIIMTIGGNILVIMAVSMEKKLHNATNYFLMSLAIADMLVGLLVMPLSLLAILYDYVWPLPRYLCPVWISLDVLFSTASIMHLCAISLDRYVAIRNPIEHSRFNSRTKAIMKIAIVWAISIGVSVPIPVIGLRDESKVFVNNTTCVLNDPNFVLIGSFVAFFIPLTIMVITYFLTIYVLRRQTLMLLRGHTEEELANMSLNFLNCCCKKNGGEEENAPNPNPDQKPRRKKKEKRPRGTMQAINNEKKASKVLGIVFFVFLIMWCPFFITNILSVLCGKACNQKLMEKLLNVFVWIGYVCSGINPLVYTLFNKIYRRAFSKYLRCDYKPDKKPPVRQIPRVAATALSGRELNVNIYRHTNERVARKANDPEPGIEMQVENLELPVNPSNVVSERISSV
Description: This test, carried out according to the protocol of Berendsen et al [“Involvement of 5-HT1C receptors in drug-induced penile erections in rats”—Psychopharmacology 101: 57-61(1990)] enables the potential in vivo activity at 5HT2C receptors to be assessed.

5-HT2C receptors = target: T2, 5-HT2C receptors (Homo sapiens, UniProt P28335); experiment: Binding test, displacement of [3H]-mesulergine, cloned human receptors expressed in 3T3 cells
T2 construct: expressed in transfected cells; host or cells: 3T3 cells
T2 sequence (P28335 33-458): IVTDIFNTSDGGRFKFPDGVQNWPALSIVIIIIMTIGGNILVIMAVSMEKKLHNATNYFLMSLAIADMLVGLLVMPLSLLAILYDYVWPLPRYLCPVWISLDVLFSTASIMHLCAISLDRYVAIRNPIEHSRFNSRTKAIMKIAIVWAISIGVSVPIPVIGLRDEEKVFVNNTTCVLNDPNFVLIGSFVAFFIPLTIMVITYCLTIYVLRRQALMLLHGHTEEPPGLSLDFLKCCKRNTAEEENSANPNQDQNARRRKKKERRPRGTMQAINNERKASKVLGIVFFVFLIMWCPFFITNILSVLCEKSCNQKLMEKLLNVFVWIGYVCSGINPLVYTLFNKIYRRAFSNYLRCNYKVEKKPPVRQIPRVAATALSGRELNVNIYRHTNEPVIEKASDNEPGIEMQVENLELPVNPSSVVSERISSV
Protocol: The tests are carried out using cloned human receptors expressed in 3T3 cells according to the protocols described in Stam et at “Genomic organization, coding sequence and functional expression of human 5-HT2 and 5-HT1A receptor genes”—European Journal of Pharmacology—Molecular Pharmacology Section 227: 153-162 (1993) and Stam et al “Genomic organisation and functional expression of the gene encoding the human serotonin 5-HT2C receptor”—European Journal of Pharmacology—Molecular Pharmacology Section 269: 339-348 (1994).

SMILES | melting point [°C] | also measured
COc1ccc2c(c1O[C@@H]1CCNC1)CCC2.Cl | 174 | –
Cl.c1cc2c(c(OC3CNC3)c1)CCC2 | 65 | –
Cc1ccc2ccccc2c1OC1CNC1.Cl | 171 | –
Cl.c1ccc2c(OC3CNC3)cccc2c1 | 292 | –
COc1ccc(OC2CNC2)c2ccccc12.Cl | 198 | –
Cl.c1cc2c(c(OC3CNC3)c1)CCCC2 | 187 | –
COc1ccc2c(c1OC1CNC1)CCCC2.Cl | 164 | –
Cl.c1ccc2cc(OC3CNC3)ccc2c1 | 168 | –
Cl.c1cc2c(c(OC3CNC3)c1)NCCC2 | > 250 | –
Cl.Clc1ccc2c(c1OC1CNC1)CCC2 | 188 | –
Cl.Clc1cc(Cl)c2ccccc2c1OC1CNC1 | 187 | –
Cc1ccc(OC2CNC2)c2ccccc12.Cl | 180 | –
CC1CCc2c(OC3CNC3)cc(F)cc21.Cl (centres unmarked) | 170 | –
Cl.c1cc(OC2CNC2)c2ccsc2c1 | 203 | –
Cl.Cl.c1cc(OC2CNC2)c2ccncc2c1 | 198 | –
Cl.c1ccc2c(SC3CNC3)cccc2c1 | 159 | –
COCc1ccc2ccccc2c1OC1CNC1.Cl | 127 | –
COc1ccc2c(c1OC1CCNC1)CCC2.Cl (racemic) [Compound 10b, (rac)-3-[(2,3-Dihydro-5-methoxy-1H-inden-4-yl)oxy] pyrrolidine hydrochloride] | 154 | Increase in pellets earned in DRL-72 (MED) (DRL-72 test): 10 mg/kg; Erection of the penis (MED) (5HT2C receptors): 1 mg/kg
Cl.c1ccc2c(OC3CCNC3)cccc2c1 (racemic) [Compound 10c, (rac)-3-[(1-Naphtalenyl)oxy]pyrrolidine hydrochloride] | – | selective effect on 5-HT2C receptors in the central nervous system (5-HT2C receptors): selective effect on 5-HT2C receptors
COc1ccc2c(c1OC1CNC1)CCC2.Cl [Compound 5d, 3-[(2,3-Dihydro-5-methoxy-1H-inden-4-yl)oxy]-azetidine hydrochloride] | 166 | Increase in pellets earned in DRL-72 (MED) (DRL-72 test): 10 mg/kg; Erection of the penis (MED) (5HT2C receptors): 1 mg/kg
COc1ccc2c(c1O[C@H]1CCNC1)CCC2.Cl [Compound 9a, (S)-(+)-3-[(2,3-Dihydro-5-methoxy-1H-inden-4-yl)oxy]-pyrrolidine Hydrochloride] | 176 | Increase in pellets earned in DRL-72 (MED) (DRL-72 test): 3 mg/kg; Erection of the penis (MED) (5HT2C receptors): 0.46 mg/kg
Cl.c1cc2c(c(OC3CCNC3)c1)CCCC2 (centres unmarked) [Compound 9b, 3-[(5,6,7,8-Tetrahydro-1-naphthalenyl)oxy]-pyrrolidine hydrochloride] | 207 | selective effect on 5-HT2C receptors in the central nervous system (5-HT2C receptors): selective effect on 5-HT2C receptors
